The NIST ThermoML archive (doi:10.1016/j.jct.2014.11.001)
Several values for one entry are separate records, joined by “and”; a condition that tells them apart may be missing. Equal entries are not always repeated.

How the values were obtained:
[1] = for Normal melting temperature: DTA
[2] = Molar enthalpy of transition or fusion; details: Crystal; DSC

NC(=O)c1cccnc1 [3-pyridinecarboxamide]
[1]
Details | vapor or sublimation pressure
341.25 K, Crystal, Calculated from knudsen effusion weight loss | 9.3e-05 kPa
343.28 K, Crystal, Calculated from knudsen effusion weight loss | 0.000117 kPa and 0.000116 kPa
345.05 K, Crystal, Calculated from knudsen effusion weight loss | 0.000142 kPa and 0.000141 kPa and 0.000144 kPa
347.23 K, Crystal, Calculated from knudsen effusion weight loss | 0.000182 kPa and 0.000183 kPa and 0.000184 kPa
349.26 K, Crystal, Calculated from knudsen effusion weight loss | 0.000228 kPa and 0.000226 kPa and 0.00023 kPa
351.07 K, Crystal, Calculated from knudsen effusion weight loss | 0.000277 kPa and 0.000275 kPa and 0.00028 kPa
353.24 K, Crystal, Calculated from knudsen effusion weight loss | 0.000356 kPa and 0.000352 kPa
355.27 K, Crystal, Calculated from knudsen effusion weight loss | 0.000434 kPa and 0.00043 kPa and 0.000436 kPa
356.6 K, Crystal, Closed cell (Static) method | 0.00051 kPa
357.06 K, Crystal, Calculated from knudsen effusion weight loss | 0.000528 kPa and 0.000517 kPa and 0.000525 kPa
358.66 K, Crystal, Closed cell (Static) method | 0.00063 kPa
359.25 K, Crystal, Calculated from knudsen effusion weight loss | 0.000666 kPa and 0.000648 kPa and 0.000656 kPa
360.58 K, Crystal, Closed cell (Static) method | 0.00078 kPa
361.29 K, Crystal, Calculated from knudsen effusion weight loss | 0.000812 kPa and 0.000792 kPa and 0.000807 kPa
363.06 K, Crystal, Calculated from knudsen effusion weight loss | 0.000975 kPa and 0.000964 kPa and 0.00097 kPa
364.49 K, Crystal, Closed cell (Static) method | 0.00116 kPa
366.57 K, Crystal, Closed cell (Static) method | 0.00143 kPa
368.47 K, Crystal, Closed cell (Static) method | 0.00172 kPa
370.51 K, Crystal, Closed cell (Static) method | 0.00211 kPa
372.43 K, Crystal, Closed cell (Static) method | 0.00255 kPa
374.46 K, Crystal, Closed cell (Static) method | 0.00311 kPa
376.31 K, Crystal, Closed cell (Static) method | 0.00371 kPa
378.39 K, Crystal, Closed cell (Static) method | 0.00451 kPa
380.33 K, Crystal, Closed cell (Static) method | 0.00536 kPa
382.34 K, Crystal, Closed cell (Static) method | 0.00647 kPa
384.22 K, Crystal, Closed cell (Static) method | 0.00767 kPa
386.28 K, Crystal, Closed cell (Static) method | 0.00925 kPa
388.17 K, Crystal, Closed cell (Static) method | 0.01094 kPa
390.23 K, Crystal, Closed cell (Static) method | 0.01311 kPa
392.23 K, Crystal, Closed cell (Static) method | 0.01553 kPa
394.43 K, Crystal, Closed cell (Static) method | 0.01868 kPa
396.07 K, Metastable liquid, Closed cell (Static) method | 0.02388 kPa
396.08 K, Crystal, Closed cell (Static) method | 0.02158 kPa
398.04 K, Metastable liquid, Closed cell (Static) method | 0.02729 kPa
398.1 K, Crystal, Closed cell (Static) method | 0.02563 kPa
400.07 K, Metastable liquid, Closed cell (Static) method | 0.03101 kPa
402.04 K, Metastable liquid, Closed cell (Static) method | 0.0351 kPa
404.02 K, Closed cell (Static) method, Liquid | 0.03991 kPa
405.98 K, Closed cell (Static) method, Liquid | 0.04492 kPa
407.93 K, Closed cell (Static) method, Liquid | 0.05046 kPa
409.92 K, Closed cell (Static) method, Liquid | 0.05717 kPa
411.89 K, Closed cell (Static) method, Liquid | 0.06456 kPa
413.87 K, Closed cell (Static) method, Liquid | 0.07284 kPa
415.82 K, Closed cell (Static) method, Liquid | 0.08179 kPa
417.81 K, Closed cell (Static) method, Liquid | 0.09162 kPa
419.77 K, Closed cell (Static) method, Liquid | 0.103 kPa
421.72 K, Closed cell (Static) method, Liquid | 0.1152 kPa
423.69 K, Closed cell (Static) method, Liquid | 0.1283 kPa
425.65 K, Closed cell (Static) method, Liquid | 0.1428 kPa
427.62 K, Closed cell (Static) method, Liquid | 0.1598 kPa
429.58 K, Closed cell (Static) method, Liquid | 0.1773 kPa
431.56 K, Closed cell (Static) method, Liquid | 0.1973 kPa
433.69 K, Closed cell (Static) method, Liquid | 0.2206 kPa

Details | Normal melting temperature [°C]
[1], Crystal | 128.1

Details | Molar enthalpy of transition or fusion [kcal/mol]
[2] | 5.66

CN(C)C(=O)c1cccnc1 [N,N-dimethylnicotinamide]
[1]
Details | vapor or sublimation pressure [kPa]
307.16 K, Metastable liquid, Closed cell (Static) method | 0.00057
308.18 K, Crystal, Closed cell (Static) method | 0.00049
309.14 K, Metastable liquid, Closed cell (Static) method | 0.00069
309.15 K, Crystal, Closed cell (Static) method | 0.00056
310.13 K, Crystal, Closed cell (Static) method | 0.00062
311.15 K, Crystal, Closed cell (Static) method | 0.0007
311.16 K, Metastable liquid, Closed cell (Static) method | 0.00082
312.13 K, Crystal, Closed cell (Static) method | 0.00078
313.1 K, Crystal, Closed cell (Static) method | 0.00088
313.1 K, Metastable liquid, Closed cell (Static) method | 0.00099
314.09 K, Crystal, Closed cell (Static) method | 0.00098
315.07 K, Metastable liquid, Closed cell (Static) method | 0.00118
315.1 K, Crystal, Closed cell (Static) method | 0.0011
317.09 K, Metastable liquid, Closed cell (Static) method | 0.00142
319.04 K, Closed cell (Static) method, Liquid | 0.00169
321.01 K, Closed cell (Static) method, Liquid | 0.002
322.97 K, Closed cell (Static) method, Liquid | 0.00238
324.98 K, Closed cell (Static) method, Liquid | 0.0028
326.94 K, Closed cell (Static) method, Liquid | 0.00334
328.93 K, Closed cell (Static) method, Liquid | 0.00388
330.88 K, Closed cell (Static) method, Liquid | 0.00459
332.9 K, Closed cell (Static) method, Liquid | 0.00538
334.96 K, Closed cell (Static) method, Liquid | 0.00637
336.93 K, Closed cell (Static) method, Liquid | 0.00748
338.92 K, Closed cell (Static) method, Liquid | 0.00861
340.89 K, Closed cell (Static) method, Liquid | 0.01
342.87 K, Closed cell (Static) method, Liquid | 0.01163
344.83 K, Closed cell (Static) method, Liquid | 0.0135
346.82 K, Closed cell (Static) method, Liquid | 0.01555
348.79 K, Closed cell (Static) method, Liquid | 0.0179
350.77 K, Closed cell (Static) method, Liquid | 0.02072
352.74 K, Closed cell (Static) method, Liquid | 0.02375
354.72 K, Closed cell (Static) method, Liquid | 0.02718
356.68 K, Closed cell (Static) method, Liquid | 0.03111
358.66 K, Closed cell (Static) method, Liquid | 0.03534
360.66 K, Closed cell (Static) method, Liquid | 0.04054
362.63 K, Closed cell (Static) method, Liquid | 0.04582
364.61 K, Closed cell (Static) method, Liquid | 0.05247
366.58 K, Closed cell (Static) method, Liquid | 0.05911
368.55 K, Closed cell (Static) method, Liquid | 0.06722
370.52 K, Closed cell (Static) method, Liquid | 0.07569

Details | Normal melting temperature [°C]
[1], Crystal | 44.2

Details | Molar enthalpy of transition or fusion [kcal/mol]
[2] | 4.64

CNC(=O)c1cccnc1 [N-methylnicotinamide]
[1]
Details | vapor or sublimation pressure
329.17 K, Crystal, Calculated from knudsen effusion weight loss | 0.000104 kPa and 0.000105 kPa
331.27 K, Crystal, Calculated from knudsen effusion weight loss | 0.000132 kPa and 0.000134 kPa and 0.000131 kPa
333.15 K, Crystal, Calculated from knudsen effusion weight loss | 0.000162 kPa and 0.00016 kPa and 0.000164 kPa
335.17 K, Crystal, Calculated from knudsen effusion weight loss | 0.000211 kPa and 0.000209 kPa and 0.000206 kPa
337.27 K, Crystal, Calculated from knudsen effusion weight loss | 0.000261 kPa and 0.000259 kPa
339.15 K, Crystal, Calculated from knudsen effusion weight loss | 0.000328 kPa and 0.00032 kPa
341.16 K, Crystal, Calculated from knudsen effusion weight loss | 0.000414 kPa and 0.000404 kPa
343.27 K, Crystal, Calculated from knudsen effusion weight loss | 0.00051 kPa and 0.000505 kPa and 0.000513 kPa
345.13 K, Crystal, Calculated from knudsen effusion weight loss | 0.000619 kPa and 0.000613 kPa and 0.000627 kPa
347.16 K, Crystal, Calculated from knudsen effusion weight loss | 0.000784 kPa and 0.000776 kPa and 0.000771 kPa
347.78 K, Crystal, Closed cell (Static) method | 0.00085 kPa
349.27 K, Crystal, Calculated from knudsen effusion weight loss | 0.000971 kPa and 0.000964 kPa and 0.000957 kPa
349.78 K, Crystal, Closed cell (Static) method | 0.00105 kPa
351.69 K, Crystal, Closed cell (Static) method | 0.00127 kPa
353.72 K, Crystal, Closed cell (Static) method | 0.00157 kPa
355.6 K, Crystal, Closed cell (Static) method | 0.00191 kPa
357.66 K, Crystal, Closed cell (Static) method | 0.00232 kPa
359.51 K, Crystal, Closed cell (Static) method | 0.0028 kPa
361.62 K, Crystal, Closed cell (Static) method | 0.00347 kPa
363.5 K, Crystal, Closed cell (Static) method | 0.00416 kPa
365.47 K, Crystal, Closed cell (Static) method | 0.00502 kPa
367.44 K, Crystal, Closed cell (Static) method | 0.00604 kPa
369.43 K, Crystal, Closed cell (Static) method | 0.00721 kPa
371.36 K, Crystal, Closed cell (Static) method | 0.00857 kPa
373.27 K, Crystal, Closed cell (Static) method | 0.01023 kPa
375.33 K, Metastable liquid, Closed cell (Static) method | 0.01316 kPa
375.36 K, Crystal, Closed cell (Static) method | 0.01234 kPa
377.25 K, Metastable liquid, Closed cell (Static) method | 0.01508 kPa
377.39 K, Crystal, Closed cell (Static) method | 0.01496 kPa
379.31 K, Metastable liquid, Closed cell (Static) method | 0.01731 kPa
381.26 K, Closed cell (Static) method, Liquid | 0.01991 kPa
383.29 K, Closed cell (Static) method, Liquid | 0.0228 kPa
385.21 K, Closed cell (Static) method, Liquid | 0.02592 kPa
387.24 K, Closed cell (Static) method, Liquid | 0.02975 kPa
389.16 K, Closed cell (Static) method, Liquid | 0.03359 kPa
391.17 K, Closed cell (Static) method, Liquid | 0.03824 kPa
393.09 K, Closed cell (Static) method, Liquid | 0.04305 kPa
395.12 K, Closed cell (Static) method, Liquid | 0.04915 kPa
397.12 K, Closed cell (Static) method, Liquid | 0.05526 kPa
399.02 K, Closed cell (Static) method, Liquid | 0.06212 kPa
401.07 K, Closed cell (Static) method, Liquid | 0.07023 kPa
403.01 K, Closed cell (Static) method, Liquid | 0.07943 kPa
404.99 K, Closed cell (Static) method, Liquid | 0.08886 kPa
406.95 K, Closed cell (Static) method, Liquid | 0.09977 kPa
408.92 K, Closed cell (Static) method, Liquid | 0.1117 kPa
410.86 K, Closed cell (Static) method, Liquid | 0.1253 kPa
412.85 K, Closed cell (Static) method, Liquid | 0.1398 kPa
414.81 K, Closed cell (Static) method, Liquid | 0.1564 kPa
416.77 K, Closed cell (Static) method, Liquid | 0.1735 kPa
418.72 K, Closed cell (Static) method, Liquid | 0.194 kPa
420.68 K, Closed cell (Static) method, Liquid | 0.2147 kPa
422.64 K, Closed cell (Static) method, Liquid | 0.2384 kPa
424.61 K, Closed cell (Static) method, Liquid | 0.2644 kPa
426.55 K, Closed cell (Static) method, Liquid | 0.2952 kPa

Details | Normal melting temperature [°C]
[1], Crystal | 106.0

Details | Molar enthalpy of transition or fusion [kcal/mol]
[2] | 5.26
